Results taken from patent US12509457B2, “Bicyclic nitrogen containing heterocycles as inhibitors of salt-induced kinase SIK2” (priority 2019, dated 2025).
pKi: −log10 of the molar value. Like-named read-outs stand apart in the source and are kept apart here.

What was measured:
Assay type in all cases: biochemical
EPHA2 = EPHA2 (Homo sapiens, UniProt P29317); assay: EPHA2 kinase assay, IMAP fluorescence polarization
Abl = Abl (Homo sapiens, UniProt P00519); assay: Abl kinase assay, IMAP fluorescence polarization; conditions: 50 or 100 μM ATP; average; read-out: Abl-AVERAGE Ki
SIK3 = SIK3 (Homo sapiens, UniProt Q9Y2K2); assay: SIK3 kinase assay, IMAP fluorescence polarization; conditions: 50 or 100 μM ATP; average; read-out: SIK3-AVERAGE Ki
Chain of SIK3 (Q9Y2K2 whole entry): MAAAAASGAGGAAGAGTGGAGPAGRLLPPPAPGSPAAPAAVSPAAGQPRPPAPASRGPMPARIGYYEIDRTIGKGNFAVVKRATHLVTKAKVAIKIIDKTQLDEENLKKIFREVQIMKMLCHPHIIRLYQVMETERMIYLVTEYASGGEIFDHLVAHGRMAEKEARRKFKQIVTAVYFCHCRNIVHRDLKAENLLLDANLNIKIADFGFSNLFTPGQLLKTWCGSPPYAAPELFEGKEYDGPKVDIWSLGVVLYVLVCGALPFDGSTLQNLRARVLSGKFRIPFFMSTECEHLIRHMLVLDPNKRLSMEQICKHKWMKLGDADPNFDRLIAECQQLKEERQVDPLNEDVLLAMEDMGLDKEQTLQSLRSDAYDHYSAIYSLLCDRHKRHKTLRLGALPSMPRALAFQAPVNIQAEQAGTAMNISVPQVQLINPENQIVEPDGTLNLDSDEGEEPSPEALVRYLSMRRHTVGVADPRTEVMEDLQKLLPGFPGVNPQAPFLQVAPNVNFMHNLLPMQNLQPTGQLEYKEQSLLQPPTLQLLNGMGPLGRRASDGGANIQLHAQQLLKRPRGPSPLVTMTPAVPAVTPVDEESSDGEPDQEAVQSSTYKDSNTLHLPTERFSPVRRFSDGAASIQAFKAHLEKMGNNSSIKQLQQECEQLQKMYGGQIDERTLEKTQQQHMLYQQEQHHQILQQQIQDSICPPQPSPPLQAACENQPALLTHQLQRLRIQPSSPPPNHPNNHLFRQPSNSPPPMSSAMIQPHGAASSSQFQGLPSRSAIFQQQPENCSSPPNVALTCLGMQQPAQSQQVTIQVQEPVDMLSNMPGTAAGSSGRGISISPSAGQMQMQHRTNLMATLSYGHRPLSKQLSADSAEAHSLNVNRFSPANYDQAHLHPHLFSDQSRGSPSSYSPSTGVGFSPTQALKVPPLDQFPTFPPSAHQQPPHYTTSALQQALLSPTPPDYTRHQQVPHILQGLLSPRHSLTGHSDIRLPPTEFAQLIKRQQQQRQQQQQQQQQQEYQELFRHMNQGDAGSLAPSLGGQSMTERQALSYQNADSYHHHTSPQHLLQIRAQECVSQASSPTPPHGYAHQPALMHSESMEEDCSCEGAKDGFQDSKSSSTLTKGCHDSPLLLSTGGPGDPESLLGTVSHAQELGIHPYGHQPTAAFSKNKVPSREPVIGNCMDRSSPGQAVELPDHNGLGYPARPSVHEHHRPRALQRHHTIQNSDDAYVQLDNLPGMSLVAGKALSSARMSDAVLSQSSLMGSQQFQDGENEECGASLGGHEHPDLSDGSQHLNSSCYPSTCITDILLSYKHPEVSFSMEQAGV

SIK1 = SIK1 (Homo sapiens, UniProt P57059); assay: SIK1 kinase assay, IMAP fluorescence polarization; conditions: 50 or 100 μM ATP; average; read-out: SIK1-AVERAGE Ki
Chain of SIK1 (P57059 whole entry): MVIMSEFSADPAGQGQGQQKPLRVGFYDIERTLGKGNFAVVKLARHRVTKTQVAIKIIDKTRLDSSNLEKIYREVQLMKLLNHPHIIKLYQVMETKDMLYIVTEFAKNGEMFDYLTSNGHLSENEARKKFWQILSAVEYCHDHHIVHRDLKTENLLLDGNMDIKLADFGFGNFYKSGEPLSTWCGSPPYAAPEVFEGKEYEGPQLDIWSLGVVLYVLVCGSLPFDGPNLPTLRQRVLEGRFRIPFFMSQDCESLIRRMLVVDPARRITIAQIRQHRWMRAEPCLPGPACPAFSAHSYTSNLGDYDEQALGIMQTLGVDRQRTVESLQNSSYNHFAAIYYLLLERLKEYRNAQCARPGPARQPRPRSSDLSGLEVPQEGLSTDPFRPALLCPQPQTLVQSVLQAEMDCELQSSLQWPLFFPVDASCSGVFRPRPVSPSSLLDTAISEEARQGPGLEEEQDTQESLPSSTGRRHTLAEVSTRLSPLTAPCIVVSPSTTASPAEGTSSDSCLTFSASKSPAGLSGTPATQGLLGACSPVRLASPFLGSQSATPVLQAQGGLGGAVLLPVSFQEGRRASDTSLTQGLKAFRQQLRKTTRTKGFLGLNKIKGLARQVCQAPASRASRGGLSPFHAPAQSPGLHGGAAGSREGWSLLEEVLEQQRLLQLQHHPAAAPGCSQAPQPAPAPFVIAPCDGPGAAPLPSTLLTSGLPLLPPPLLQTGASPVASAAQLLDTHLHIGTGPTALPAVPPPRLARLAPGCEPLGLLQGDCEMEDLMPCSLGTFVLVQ

Src = Src (Homo sapiens, UniProt P12931); assay: Src kinase assay, IMAP fluorescence polarization; conditions: 50 or 100 μM ATP; average; read-out: Src-AVERAGE Ki
Chain of Src (P12931 whole entry): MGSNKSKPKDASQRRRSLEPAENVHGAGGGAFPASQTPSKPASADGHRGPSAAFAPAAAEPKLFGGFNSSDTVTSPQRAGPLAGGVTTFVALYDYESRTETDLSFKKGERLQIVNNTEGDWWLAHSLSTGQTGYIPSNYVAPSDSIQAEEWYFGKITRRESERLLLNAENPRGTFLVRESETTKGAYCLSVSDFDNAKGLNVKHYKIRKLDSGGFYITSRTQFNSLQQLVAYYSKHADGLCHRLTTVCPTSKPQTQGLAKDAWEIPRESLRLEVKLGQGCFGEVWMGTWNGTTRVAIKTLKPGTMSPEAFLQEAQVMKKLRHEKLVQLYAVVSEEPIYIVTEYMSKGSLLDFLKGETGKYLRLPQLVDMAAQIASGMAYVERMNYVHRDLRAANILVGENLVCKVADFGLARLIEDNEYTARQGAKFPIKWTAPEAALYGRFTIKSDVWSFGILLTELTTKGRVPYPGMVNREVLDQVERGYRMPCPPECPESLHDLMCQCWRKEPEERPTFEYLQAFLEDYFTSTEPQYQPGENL

SIK2 = SIK2 (Homo sapiens, UniProt Q9H0K1); assay: SIK2 kinase assay, IMAP fluorescence polarization; conditions: 50 or 100 μM ATP; average; read-out: SIK2-AVERAGE Ki
Chain of SIK2 (Q9H0K1 whole entry): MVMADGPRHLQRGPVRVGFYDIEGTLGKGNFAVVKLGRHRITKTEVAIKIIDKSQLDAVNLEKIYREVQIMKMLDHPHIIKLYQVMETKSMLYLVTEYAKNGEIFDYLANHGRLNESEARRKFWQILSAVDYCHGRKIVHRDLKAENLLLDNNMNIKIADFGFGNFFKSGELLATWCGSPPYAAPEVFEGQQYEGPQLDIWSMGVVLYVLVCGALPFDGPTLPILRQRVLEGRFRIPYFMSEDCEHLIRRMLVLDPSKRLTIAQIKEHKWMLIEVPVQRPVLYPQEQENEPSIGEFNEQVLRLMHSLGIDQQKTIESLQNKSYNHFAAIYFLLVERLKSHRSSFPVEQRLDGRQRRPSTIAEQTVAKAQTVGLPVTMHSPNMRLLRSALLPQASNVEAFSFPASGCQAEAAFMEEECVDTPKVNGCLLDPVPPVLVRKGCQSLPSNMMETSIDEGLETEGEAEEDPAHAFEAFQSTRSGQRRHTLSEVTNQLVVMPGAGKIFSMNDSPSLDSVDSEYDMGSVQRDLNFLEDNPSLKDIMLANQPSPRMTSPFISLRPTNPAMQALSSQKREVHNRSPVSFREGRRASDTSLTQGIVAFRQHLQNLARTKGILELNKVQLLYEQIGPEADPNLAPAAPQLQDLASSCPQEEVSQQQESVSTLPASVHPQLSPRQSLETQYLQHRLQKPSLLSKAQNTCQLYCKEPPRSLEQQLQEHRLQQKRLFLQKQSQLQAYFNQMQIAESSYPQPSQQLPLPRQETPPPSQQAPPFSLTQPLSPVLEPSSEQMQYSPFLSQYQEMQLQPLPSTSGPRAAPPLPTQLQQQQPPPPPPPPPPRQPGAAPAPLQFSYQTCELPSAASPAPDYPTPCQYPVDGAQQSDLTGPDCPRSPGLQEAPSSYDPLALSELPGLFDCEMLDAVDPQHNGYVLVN

Chain of EPHA2 (P29317 24-976): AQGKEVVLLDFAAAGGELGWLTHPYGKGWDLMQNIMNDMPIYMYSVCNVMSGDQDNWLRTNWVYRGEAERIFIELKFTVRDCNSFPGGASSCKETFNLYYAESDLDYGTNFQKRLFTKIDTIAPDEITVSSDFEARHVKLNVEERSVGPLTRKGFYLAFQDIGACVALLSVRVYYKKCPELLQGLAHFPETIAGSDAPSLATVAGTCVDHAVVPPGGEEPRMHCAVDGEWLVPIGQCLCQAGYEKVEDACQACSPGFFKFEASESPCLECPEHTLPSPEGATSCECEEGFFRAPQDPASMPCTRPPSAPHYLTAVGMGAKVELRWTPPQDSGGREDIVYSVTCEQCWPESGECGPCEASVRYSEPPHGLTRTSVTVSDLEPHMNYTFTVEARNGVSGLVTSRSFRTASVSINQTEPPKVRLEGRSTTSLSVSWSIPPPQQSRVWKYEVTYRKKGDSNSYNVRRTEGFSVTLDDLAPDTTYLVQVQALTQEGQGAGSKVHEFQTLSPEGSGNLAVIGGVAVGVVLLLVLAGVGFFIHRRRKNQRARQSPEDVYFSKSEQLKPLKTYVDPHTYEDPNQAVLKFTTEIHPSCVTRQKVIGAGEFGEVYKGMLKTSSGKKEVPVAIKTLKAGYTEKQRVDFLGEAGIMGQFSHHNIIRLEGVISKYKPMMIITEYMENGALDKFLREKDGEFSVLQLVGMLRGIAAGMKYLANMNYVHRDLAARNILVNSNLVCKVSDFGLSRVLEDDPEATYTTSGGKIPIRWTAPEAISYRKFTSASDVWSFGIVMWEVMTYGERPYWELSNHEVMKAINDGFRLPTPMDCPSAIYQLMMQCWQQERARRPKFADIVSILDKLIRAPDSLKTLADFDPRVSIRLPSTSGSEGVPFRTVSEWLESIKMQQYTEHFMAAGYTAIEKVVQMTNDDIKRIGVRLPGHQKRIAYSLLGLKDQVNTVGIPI

Structure (SMILES) | pKi (EPHA2; 50 or 100 μM ATP, average) | pKi (Abl) | pKi (SIK3) | pKi (SIK1) | pKi (Src) | pKi (SIK2) | pKi (EPHA2)
Cc1cccc(F)c1N1Cc2cnc(N)nc2N([C@@H]2CCCNCC2)C1=O [Example 68, 7-amino-1-[(4R)-azepan-4-yl]-3-(2-fluoro-6-methyl-phenyl)-4H-pyrimido[4,5-d]pyrimidin-2-one] | 7.65 | 7.81 | 9.07 | 9.40 | 7.32 | 9.71 | –
CN[C@H]1CC[C@H](N2C(=O)N(c3c(C)cccc3F)Cc3cnc(N)cc32)CC1 [Example 64, trans-7-amino-3-(2-fluoro-6-methyl-phenyl)-1-[4-(methylamino)cyclohexyl]-4H-pyrido[4,3-d]pyrimidin-2-one] | 7.01 | 7.59 | 8.87 | 9.13 | 7.40 | 9.46 | –
Cc1cccc(F)c1N1Cc2cnc(N)nc2N(C2CN(C)C2)C1=O [Example 21, 7-amino-3-(2-fluoro-6-methyl-phenyl)-1-(1-methylazetidin-3-yl)-4H-pyrimido[4,5-d]pyrimidin-2-one] | 6.41 | < 5.00 | 7.32 | 7.32 | 5.59 | 7.86 | –
Cc1cccc(Cl)c1N1Cc2cnc(N)cc2N(C2CN(C)C2)C1=O [Example 9, 7-amino-3-(2-chloro-6-methyl-phenyl)-1-(1-methylazetidin-3-yl)-4H-pyrido[4,3-d]pyrimidin-2-one] | – | < 6.00 | 6.84 | 7.53 | < 6.00 | 7.75 | 6.76
Cc1cccc(F)c1N1Cc2cnc(N)nc2N(C2CNC2)C1=O [Example 13, 7-Amino-1-(azetidin-3-yl)-3-(2-fluoro-6-methyl-phenyl)-4H-pyrimido[4,5-d]pyrimidin-2-one] | 6.43 | 7.44 | 7.96 | 8.01 | 6.40 | 8.75 | –

Other lines, results leading:

pKi (EPHA2; 50 or 100 μM ATP, average) | pKi (Abl) | pKi (SIK3) | pKi (SIK1) | pKi (Src) | pKi (SIK2) | pKi (EPHA2) | Structure (SMILES)
< 6.00 | < 6.00 | 6.90 | 7.25 | < 6.00 | 7.87 | – | Cc1cccc(F)c1N1Cc2cnc(N)cc2N(C2CN(C)C2)C1=O [Example 5, 7-amino-3-(2-fluoro-6-methyl-phenyl)-1-(1-methylazetidin-3-yl)-4H-pyrido[4,3-d]pyrimidin-2-one]
– | < 6.00 | 8.49 | 9.06 | < 6.00 | 9.32 | < 6.00 | Cc1cccc(F)c1N1Cc2cnc(N)cc2N([C@H]2CCCNC2)C1=O [Example 49, 7-amino-3-(2-fluoro-6-methyl-phenyl)-1-[(3S)-3-piperidyl]-4H-pyrido[4,3-d]pyrimidin-2-one]
7.26 | < 6.00 | 8.23 | 9.00 | 7.08 | 9.30 | – | Cc1cccc(F)c1N1Cc2cnc(N)cc2N([C@H]2CCCN(C)C2)C1=O [Example 82, 7-amino-3-(2-fluoro-6-methyl-phenyl)-1-[(3S)-1-methyl-3-piperidyl]-4H-pyrido[4,3-d]pyrimidin-2-one]
– | 6.45 | 7.42 | 8.49 | < 5.00 | 8.67 | 6.53 | Cc1cccc(F)c1N1Cc2cnc(N)cc2N([C@@H]2CCN(C)C2)C1=O [Example 80, 7-amino-3-(2-fluoro-6-methyl-phenyl)-1-[(3R)-1-methylpyrrolidin-3-yl]-4H-pyrido[4,3-d]pyrimidin-2-one]
7.33 | 7.54 | 9.55 | 9.35 | 7.72 | 9.92 | – | Cc1cccc(F)c1N1Cc2cnc(N)cc2N([C@H]2CC[C@H](N)CC2)C1=O [Example 58, trans-7-Amino-1-(4-aminocyclohexyl)-3-(2-fluoro-6-methyl-phenyl)-4H-pyrido[4,3-d]pyrimidin-2-one]
